Results from paper PMC3004370, “PI3Kα Inhibitors That Inhibit Metastasis” (Oncotarget, 2010).

Tests used:
[1] = tested on: Intraspleenic-injected HCT116 liver and lung metastases; test: Intraspleenic tumor model (metastasis); type: in vivo, mice; conditions: 150 mg/kg IP daily, three weeks
Procedure: Intraspleenic-injected HCT116 liver and lung metastases in NOD.Cg-Prkdcscid Il2rgtm1Wjl/SzJ mice (Jackson Laboratory, Bar Harbor, ME, USA) were generated as described in Erikson et. al.. J-series compounds were solubilized in 1:1 DMSO/Cremophor EL (Sigma-Aldrich) and diluted 2.3-fold in water to a final concentration of 7.5 mg/ml. 400 μl of this formulation (150 mg/kg) was injected intraperitoneally (IP) once a day for three weeks, beginning the third day post-surgery. Mice were sacrificed after the treatment and the liver, lungs, and spleen sampled. DNA was extracted from organs with the DNeasy Blood & Tissue Kit (Qiagen). The qPCR assay used for quantification of human DNA in mouse organs has been described. All mouse protocols were designed in accordance with the NIH Guide for the Care and Use of Laboratory Animals and approved by the Institutional Animal Care and Use Committee.

TBK1 = biological target: T1, TBK1 (Homo sapiens, UniProt Q9UHD2); test: Millipore KinaseProfiler; type: biochemical; conditions: read-out: % of control
T1 construct: purchased Millipore (KinaseProfiler service)
Description: (§1) Supplement oncotarget-01-339-s001.doc, table 1: Supplementary Table 1. Millipore KinaseProfiler excerpt | column: % of control

PTK5 = biological target: T2, PTK5 (Homo sapiens, UniProt P42685); test: Millipore KinaseProfiler; type: biochemical; conditions: read-out: % of control
T2 construct: purchased Millipore (KinaseProfiler service)
Description: as §1

IRAK4 = biological target: T3, IRAK4 (Homo sapiens, UniProt Q9NWZ3); test: Millipore KinaseProfiler; type: biochemical; conditions: read-out: % of control
T3 construct: purchased Millipore (KinaseProfiler service)
Description: as §1

CDK5/p35 = biological target: T4, CDK5/p35 (Homo sapiens, UniProt Q00535); test: Millipore KinaseProfiler; type: biochemical; conditions: read-out: % of control
T4 construct: purchased Millipore (KinaseProfiler service)
Description: as §1

Src(1-530) = biological target: T5, Src(1-530) (Homo sapiens, UniProt P12931); test: Millipore KinaseProfiler; type: biochemical; conditions: read-out: % of control
T5 construct: Src(1-530); purchased Millipore (KinaseProfiler service)
Description: as §1

CLK2 = biological target: T6, CLK2 (Homo sapiens, UniProt P49760); test: Millipore KinaseProfiler; type: biochemical; conditions: read-out: % of control
T6 construct: purchased Millipore (KinaseProfiler service)
Description: as §1

Yes = biological target: T7, Yes (Homo sapiens, UniProt P07947); test: Millipore KinaseProfiler; type: biochemical; conditions: read-out: % of control
T7 construct: purchased Millipore (KinaseProfiler service)
Description: as §1

Flt3 = biological target: T8, Flt3 (Homo sapiens, UniProt P36888); test: Millipore KinaseProfiler; type: biochemical; conditions: read-out: % of control
T8 construct: purchased Millipore (KinaseProfiler service)
Description: as §1

Ret = biological target: T9, Ret (Homo sapiens, UniProt P07949); test: Millipore KinaseProfiler; type: biochemical; conditions: read-out: % of control
T9 construct: purchased Millipore (KinaseProfiler service)
Description: as §1

p110γ = biological target: T10, p110γ (Homo sapiens, UniProt P48736); test: Biochemical PI3K inhibition assay, p110γ
T10 construct: His-tag; made in house; host or cells: Sf9 insect cells (baculovirus)
Description: cDNA clones of PIK3CA, PIK3CB and PIK3CG were obtained from Origene (Rockville, MD, USA). PIK3CD was generously provided by Novartis Pharmaceuticals. The cDNA clones were sub-cloned into pFastBac His-Tag (Invitrogen, Carlsbad, CA, USA) and baculovirus clones were generated by the Bac-to-Bac expression system (Invitrogen). p110α, p110β and p110δ were co-expressed in Sf9 insect cells (Invitrogen) with a nSH2-iSH2 fragment of the regulatory subunit p85 comprising AA residues 322 to 600 [4]. p110γ was expressed without a regulatory subunit. Sf9 cells were lysed in a buffer containing 50 mM sodium phosphate, pH 8.0, 400 mM NaCl, 5% glycerol, 1% Triton X-100, 10 mM 2-mercaptoethanol, 1 mM orthovanadate, 10 mM imidazole, and sonicated on ice for 1 minute. Proteins were purified by adding Ni-NTA Superflow beads (Qiagen, Valencia, CA, USA) to the lysate and subsequent rolling for 30 min at 4°C. Beads were washed twice with 50 mM phosphate buffer, pH 8.0, 0.5 M NaCl, 50 mM Imidazole, 2 mM DTT and eluted in the same buffer but with 200 mM imidazole. Purified PI3K's were mixed 1:1 with glycerol and stored at -20°C.
J-series inhibitors were dissolved, serial diluted in DMSO and deposited into 96 well plates at a final DMSO concentration of 1%. We used a novel assay to determine their potency and selectivity. In brief, micelles of 2.5 μg L-a-Phosphatidylinositol and 2.5 μg 1,2-Diacyl-sn-glycero-3-phospho-L-serine were formed by sonication, mixed with the individual PI3K isoforms and added to the drug dilutions in a reaction buffer containing 10 mM HEPES, 25 mM NaCl, 0.125 μg/μl BSA, and 2 mM BME (final concentrations). Reactions were timed after the addition of 10 μM ATP with 40 μCi/ml γ-32P-ATP (PerkinElmer, Waltham, MA, USA) and 2 mM MgCl2 (all final concentrations). The reactions were terminated after two hours by the addition of 2 N HCl and the lipids extracted with 1:1 MetOH/Chloroform. Radio-labeled phosphatidyl-inositol-3-phosphate in the extracted organic fraction was quantified after the addition of Microscint O (PerkinElmer) using a TopCount 96 well plate scintillation counter (PerkinElmer). IC50 concentrations and inhibition curves were calculated using Prism 5 (GraphPad Software, La Jolla, CA).

T10 sequence (P48736 whole entry): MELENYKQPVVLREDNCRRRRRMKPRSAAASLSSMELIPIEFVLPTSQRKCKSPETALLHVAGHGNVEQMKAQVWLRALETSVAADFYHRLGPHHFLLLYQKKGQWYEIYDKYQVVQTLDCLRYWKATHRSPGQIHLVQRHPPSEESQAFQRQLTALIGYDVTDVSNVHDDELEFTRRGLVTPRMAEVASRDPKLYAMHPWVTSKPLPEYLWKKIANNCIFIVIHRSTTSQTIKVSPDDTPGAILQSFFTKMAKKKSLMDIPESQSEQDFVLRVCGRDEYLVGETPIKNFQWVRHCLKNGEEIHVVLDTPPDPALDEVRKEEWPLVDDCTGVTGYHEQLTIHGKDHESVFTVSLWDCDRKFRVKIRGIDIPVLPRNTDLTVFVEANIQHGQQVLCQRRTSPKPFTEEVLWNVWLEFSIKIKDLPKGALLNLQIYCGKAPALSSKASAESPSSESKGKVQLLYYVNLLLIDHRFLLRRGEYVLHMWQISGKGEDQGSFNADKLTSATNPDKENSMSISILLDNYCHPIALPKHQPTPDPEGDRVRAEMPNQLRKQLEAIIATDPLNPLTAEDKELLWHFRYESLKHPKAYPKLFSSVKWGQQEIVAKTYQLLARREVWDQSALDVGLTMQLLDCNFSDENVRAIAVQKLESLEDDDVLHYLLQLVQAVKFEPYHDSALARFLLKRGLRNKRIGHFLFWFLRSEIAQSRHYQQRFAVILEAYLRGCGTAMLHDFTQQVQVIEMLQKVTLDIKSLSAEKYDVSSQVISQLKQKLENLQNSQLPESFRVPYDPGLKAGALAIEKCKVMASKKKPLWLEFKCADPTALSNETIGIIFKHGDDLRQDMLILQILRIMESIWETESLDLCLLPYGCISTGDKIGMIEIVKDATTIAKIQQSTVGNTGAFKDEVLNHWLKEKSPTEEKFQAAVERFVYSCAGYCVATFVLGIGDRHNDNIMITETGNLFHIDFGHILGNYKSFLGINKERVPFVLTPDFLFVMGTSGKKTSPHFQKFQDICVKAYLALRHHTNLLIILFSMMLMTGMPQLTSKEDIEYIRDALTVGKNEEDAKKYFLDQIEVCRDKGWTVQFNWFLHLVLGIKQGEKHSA
T6 sequence (P49760 whole entry): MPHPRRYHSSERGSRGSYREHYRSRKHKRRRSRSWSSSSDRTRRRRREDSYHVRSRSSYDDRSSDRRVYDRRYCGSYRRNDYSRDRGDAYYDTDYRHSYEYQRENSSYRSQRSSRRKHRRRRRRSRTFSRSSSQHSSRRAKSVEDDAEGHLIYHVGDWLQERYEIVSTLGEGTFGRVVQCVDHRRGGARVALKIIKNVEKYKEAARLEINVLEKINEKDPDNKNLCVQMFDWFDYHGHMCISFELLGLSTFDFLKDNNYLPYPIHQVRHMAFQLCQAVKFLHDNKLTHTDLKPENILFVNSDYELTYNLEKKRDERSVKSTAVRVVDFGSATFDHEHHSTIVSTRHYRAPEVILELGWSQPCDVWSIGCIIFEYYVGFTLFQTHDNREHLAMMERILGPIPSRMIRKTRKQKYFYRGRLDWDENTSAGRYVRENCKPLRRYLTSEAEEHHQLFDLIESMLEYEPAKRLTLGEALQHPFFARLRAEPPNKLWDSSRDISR
T2 sequence (P42685 whole entry): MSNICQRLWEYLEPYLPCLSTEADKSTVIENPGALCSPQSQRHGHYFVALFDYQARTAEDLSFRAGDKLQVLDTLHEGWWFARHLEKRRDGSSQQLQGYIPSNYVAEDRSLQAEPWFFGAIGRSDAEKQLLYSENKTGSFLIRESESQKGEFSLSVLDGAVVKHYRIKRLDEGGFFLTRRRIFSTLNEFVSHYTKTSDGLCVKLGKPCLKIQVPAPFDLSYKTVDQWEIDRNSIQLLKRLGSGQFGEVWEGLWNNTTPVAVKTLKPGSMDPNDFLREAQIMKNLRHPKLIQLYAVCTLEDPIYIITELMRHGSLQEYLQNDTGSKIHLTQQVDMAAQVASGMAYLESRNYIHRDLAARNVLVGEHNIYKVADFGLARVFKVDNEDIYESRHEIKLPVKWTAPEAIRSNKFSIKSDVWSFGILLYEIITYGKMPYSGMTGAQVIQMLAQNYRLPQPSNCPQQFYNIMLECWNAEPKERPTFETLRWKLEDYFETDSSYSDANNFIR
T7 sequence (P07947 whole entry): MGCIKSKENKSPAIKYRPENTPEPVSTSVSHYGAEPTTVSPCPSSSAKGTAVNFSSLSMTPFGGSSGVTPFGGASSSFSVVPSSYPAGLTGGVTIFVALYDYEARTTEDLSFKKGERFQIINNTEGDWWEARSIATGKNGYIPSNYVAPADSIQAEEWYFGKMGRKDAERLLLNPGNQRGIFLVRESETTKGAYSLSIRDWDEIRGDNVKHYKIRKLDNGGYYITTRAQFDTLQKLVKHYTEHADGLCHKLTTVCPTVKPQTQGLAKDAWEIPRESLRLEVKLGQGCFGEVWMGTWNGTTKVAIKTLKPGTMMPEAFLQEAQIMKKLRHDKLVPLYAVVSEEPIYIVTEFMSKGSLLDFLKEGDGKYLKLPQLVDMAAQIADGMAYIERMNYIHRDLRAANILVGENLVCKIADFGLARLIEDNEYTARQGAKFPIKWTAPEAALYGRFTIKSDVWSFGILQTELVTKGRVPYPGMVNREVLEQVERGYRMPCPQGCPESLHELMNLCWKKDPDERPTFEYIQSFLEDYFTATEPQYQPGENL
T8 sequence (P36888 27-993): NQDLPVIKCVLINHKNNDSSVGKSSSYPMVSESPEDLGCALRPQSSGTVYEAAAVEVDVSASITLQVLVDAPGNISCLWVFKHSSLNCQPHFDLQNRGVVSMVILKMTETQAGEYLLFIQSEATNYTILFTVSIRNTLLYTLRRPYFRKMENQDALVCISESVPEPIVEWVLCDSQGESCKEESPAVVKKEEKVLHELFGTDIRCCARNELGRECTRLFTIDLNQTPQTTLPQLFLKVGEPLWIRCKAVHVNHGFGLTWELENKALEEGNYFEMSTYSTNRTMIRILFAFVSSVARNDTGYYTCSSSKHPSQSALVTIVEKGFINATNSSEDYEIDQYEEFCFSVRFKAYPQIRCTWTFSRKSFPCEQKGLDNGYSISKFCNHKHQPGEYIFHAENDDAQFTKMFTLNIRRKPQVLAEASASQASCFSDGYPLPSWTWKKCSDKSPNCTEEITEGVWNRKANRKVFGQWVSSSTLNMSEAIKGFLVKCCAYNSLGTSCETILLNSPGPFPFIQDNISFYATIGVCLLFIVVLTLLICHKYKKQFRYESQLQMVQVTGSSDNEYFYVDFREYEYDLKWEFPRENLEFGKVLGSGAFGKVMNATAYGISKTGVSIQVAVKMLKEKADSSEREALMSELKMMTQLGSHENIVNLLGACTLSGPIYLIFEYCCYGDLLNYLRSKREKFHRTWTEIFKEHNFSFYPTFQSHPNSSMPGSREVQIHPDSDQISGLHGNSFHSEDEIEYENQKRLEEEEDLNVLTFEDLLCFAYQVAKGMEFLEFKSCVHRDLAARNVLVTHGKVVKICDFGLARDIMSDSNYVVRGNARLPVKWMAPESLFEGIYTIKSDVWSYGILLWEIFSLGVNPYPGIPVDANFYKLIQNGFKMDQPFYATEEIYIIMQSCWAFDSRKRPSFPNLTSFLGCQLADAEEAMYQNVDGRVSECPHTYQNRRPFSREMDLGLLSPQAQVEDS
T9 sequence (P07949 29-1114): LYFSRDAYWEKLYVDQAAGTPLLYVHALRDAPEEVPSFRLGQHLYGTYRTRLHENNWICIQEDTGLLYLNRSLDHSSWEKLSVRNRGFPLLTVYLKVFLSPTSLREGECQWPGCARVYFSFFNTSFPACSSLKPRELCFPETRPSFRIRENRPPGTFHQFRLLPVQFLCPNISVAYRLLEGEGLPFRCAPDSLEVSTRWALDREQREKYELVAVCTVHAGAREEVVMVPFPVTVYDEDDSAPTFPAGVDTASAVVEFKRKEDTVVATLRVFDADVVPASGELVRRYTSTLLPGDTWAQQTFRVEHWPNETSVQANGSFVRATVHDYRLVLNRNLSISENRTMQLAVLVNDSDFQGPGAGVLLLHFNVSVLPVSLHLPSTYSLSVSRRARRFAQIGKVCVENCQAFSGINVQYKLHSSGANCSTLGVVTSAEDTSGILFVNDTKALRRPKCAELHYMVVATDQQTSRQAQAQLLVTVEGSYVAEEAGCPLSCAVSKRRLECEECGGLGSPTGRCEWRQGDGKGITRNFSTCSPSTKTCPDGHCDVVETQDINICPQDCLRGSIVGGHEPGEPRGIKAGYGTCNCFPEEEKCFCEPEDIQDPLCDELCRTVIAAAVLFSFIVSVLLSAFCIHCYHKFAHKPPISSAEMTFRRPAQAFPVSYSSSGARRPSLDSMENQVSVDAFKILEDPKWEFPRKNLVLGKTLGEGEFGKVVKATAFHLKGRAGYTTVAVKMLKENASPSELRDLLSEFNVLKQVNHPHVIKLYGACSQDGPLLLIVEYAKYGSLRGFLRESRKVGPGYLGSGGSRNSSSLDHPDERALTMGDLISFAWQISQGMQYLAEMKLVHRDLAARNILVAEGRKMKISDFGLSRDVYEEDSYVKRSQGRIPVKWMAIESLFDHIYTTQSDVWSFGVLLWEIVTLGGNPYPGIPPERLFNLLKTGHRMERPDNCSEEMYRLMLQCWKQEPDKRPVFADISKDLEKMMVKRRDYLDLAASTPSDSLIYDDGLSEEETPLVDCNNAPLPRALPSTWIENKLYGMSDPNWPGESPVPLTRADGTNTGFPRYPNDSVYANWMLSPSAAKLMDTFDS

remaining activity at 0.011 µM (TBK1): 46%
remaining activity at 0.011 µM (PTK5): 11%
remaining activity at 0.011 µM (IRAK4): 48%
remaining activity at 0.011 µM (CDK5/p35): 37%
remaining activity at 0.011 µM (Src(1-530)): 48%
remaining activity at 0.011 µM (CLK2): 5%
remaining activity at 0.011 µM (Yes): 40%
remaining activity at 0.011 µM (Flt3): 10%
remaining activity at 0.011 µM (Ret): 49%
IC50 (p110γ; 10 μM ATP, two hours, no regulatory subunit): 380 nM
selectivity against PI3Kγ (p110γ; relative to PI3Kα): > 30 fold
Compound: CCN(/N=C/c1cnc2ccc(Br)cn12)S(=O)(=O)c1cc([N+](=O)[O-])c(NC(=O)C(F)(F)F)cc1C [J124]
metastatic lesions in the lungs [1]: no lesions
metastatic foci in the liver (histopathology) ([1]; compared to vehicle): few, if any, metastatic foci
reduction in primary tumor burden in the spleen (real-time PCR) ([1]; compared to vehicle): ~ 50%
reduction of metastatic liver burden (real-time PCR) ([1]; compared to vehicle): 13 fold
